Experimental findings from publication PMC12086361, “Downstream Signaling of Muscarinic M4 Receptors Is Regulated by Receptor Density and Cellular Environment” (Pharmacology Research & Perspectives, 2025) are described below.

This assay concerns the target T1, human M4 receptor (hM4) (Homo sapiens, UniProt P08173).
T1 construct: gene CHRM4
T1 sequence (P08173 1-479): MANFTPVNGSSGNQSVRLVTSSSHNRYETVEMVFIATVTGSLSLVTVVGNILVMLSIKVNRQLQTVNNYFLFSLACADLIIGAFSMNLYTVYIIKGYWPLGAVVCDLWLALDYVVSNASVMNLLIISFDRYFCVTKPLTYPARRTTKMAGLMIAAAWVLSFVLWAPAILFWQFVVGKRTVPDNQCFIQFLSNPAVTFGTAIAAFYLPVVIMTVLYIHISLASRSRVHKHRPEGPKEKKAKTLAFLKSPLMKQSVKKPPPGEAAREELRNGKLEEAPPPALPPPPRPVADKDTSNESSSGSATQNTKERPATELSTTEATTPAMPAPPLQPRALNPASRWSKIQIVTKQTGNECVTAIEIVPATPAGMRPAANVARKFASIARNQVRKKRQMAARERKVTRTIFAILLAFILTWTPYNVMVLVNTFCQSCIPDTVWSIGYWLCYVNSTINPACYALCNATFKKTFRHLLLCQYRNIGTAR
Nature of the assay: cADDis cAMP sensor FLIPR assay, HEK293 hM4, decrease of forskolin-stimulated cAMP. The assay is classed as cell-based. The settings on record: read-out: HEK-293, hM4, cAMP (48 h) / Gi pEC50 /slope (converted). The text has this:
cADDis cAMP sensor FLIPR assay, HEK293 hM4, decrease of forskolin-stimulated cAMP on human M4 receptor (hM4)
For `CCOC(=O)N1CC2(CCC(N3CCC(N(CC)C(C)=O)CC3)C2)C1` (stereo not drawn) [compound 6, compound-6], the EC50 was 0.407 nM.
`COC(=O)N1CCC(N2CCC(n3c(=O)n(C)c4ccccc43)CC2)CC1` [compound 110, compound-110]: the EC50 is 0.646 nM.
`C[N+](C)(C)CC#CCN1CCCC1=O` [oxotremorine-M]: the EC50 is 1.2 nM.
